According to patent US11412735B2, “Pre-emergent herbicide” (W. Neudorff GMBH KG, priority 2016, dated 2022):

Tests used:
Assay type in all cases: in vivo
[1] = tested on: grass (lawn), perennial rye grass; assay: Grass phytotoxicity / selective herbicide assay (Example 4)
Source text: The “selective herbicide assay” comprises:
applying an amount of a composition (or the components thereof) to a target area comprising pre-emergent undesired vegetation and desired vegetation; and
following application (e.g. after at least 7, 14 or 21 days from application) assessing separately undesired vegetation emergence and desired vegetation survival visually using a percentage rating scale from 0% (no undesired vegetation emergence/no desired vegetation survival) to 100% (complete undesired vegetation emergence/complete desired vegetation survival).
(§1) Dry FeHEDTA (micro-granular; Dissolvine H—Fe-13) was purchased from the company AkzoNobel. Corn gluten meal (Amaizeingly Green; N—P—K 10-0-0) and the mustard seed meal (Pescadero Gold; N—P—K 4.5-1.5-1.15) were purchased from AgGlobal (155, Gordon Baker Road, Suite 402,Toronto, ON M2H 3N7, Canada. www.buyagglobal.com) and Farm Fuel Inc (275 Coward Rd, Watsonville, Calif. 95076, USA. www.farmfuelinc.com), respectively. The corn gluten meal and mustard seed meal arrived in pellet form, but were ground and sieved through a mesh (sieve opening size 850 μm) before use to obtain a particle size of ≤850 μm. FeHEDTA (4.8%) was mixed with 1% of drying agent (MICRO-CEL® E) and then mixed with fertilizer seed meal (corn gluten meal or mustard seed meal) (94.2%) and blended thoroughly until the formulation became homogeneous. The application rate was 100 g/m^2 for the combined treatment (94.2 g/m^2 for FSM and 4.8 g/m^2 for FeHEDTA), 4.8 g/m^2 for FeHEDTA treatment and 100 g/m^2 for FSM treatment. In the formulation, the respective FSM was simply blended with transition metal chelate and with other ingredients if applicable. Samples were usually prepared within 48 hours of treatment. All tests were done in the greenhouse.
(§2) Pots 4″ in size were filled with wetted potting media, grass (lawn) seeds (perennial rye grass) were spread until soil was completely covered with grass seeds (5 g/pot) and kept for 1 month until grass was grown. […] Number of emerged seedlings in each pot was recorded 14 days after application.

dandelion seeds [2] = assay: Greenhouse dandelion seed germination test, application on soil (Examples 1-3); details: soil pots; for Weed emergence suppression assay score: untreated = 0%
Source text: (§3) The “weed emergence suppression assay” comprises:
(§4) applying an amount of a composition or the components thereof to a target area comprising pre-emergent undesired vegetation; and following application (e.g. after at least 7, 14 or 21 days from application) assessing emergence visually using a percentage rating scale from 100% (no undesired vegetation emergence) to 0% (complete undesired vegetation emergence=untreated control).
as §1
Pots 4″ in size were filled with wetted potting media and dandelion seeds were spread (0.2 g of seeds/four pots in examples 1 and 2 and 0.25 g/4 pots in example 3) evenly over each pot and lightly watered 3 hrs before treating. Seeded pots were covered with a thin layer of potting soil and treatments were applied after seeding (e.g. just after seeding). Each treatment consisted with 4 replicates. All treatments were lightly watered as needed until the seedlings emerged. Number of emerged seedlings in each pot was recorded 7 or 21 days after treatment application.

dandelion seeds [3] = assay: Greenhouse dandelion seed germination (in grass) test (Example 4); details: dandelion seeded in grass pots
Source text: as §3, §4
Dry FeHEDTA (micro-granular; Dissolvine H—Fe-13) was purchased from the company AkzoNobel. Corn gluten meal (Amaizeingly Green; N—P—K 10-0-0) and the mustard seed meal (Pescadero Gold; N—P—K 4.5-1.5-1.15) were purchased from AgGlobal (155, Gordon Baker Road, Suite 402,Toronto, ON M2H 3N7, Canada. www.buyagglobal.com) and Farm Fuel Inc (275 Coward Rd, Watsonville, Calif. 95076, USA. www.farmfuelinc.com), respectively. The corn gluten meal and mustard seed meal arrived in pellet form, but were ground and sieved through a mesh (sieve opening size 850 μm) before use to obtain a particle size of ≤850 μm. […]
as §2

## O=C([O-])CN(CCO)CCN(CC(=O)[O-])CC(=O)[O-].[Fe+3] [Dry FeHEDTA (B), FeHEDTA]
[1]; score on desired vegetation (grass)
  Selective herbicide assay score: 0%
[1]; visual rating of grass damage, 7 days after treatment
  Grass phytotoxicty, 7 days after treatment: 0
[1]; visual rating of grass damage, 14 days after treatment
  Grass phytotoxicty, 14 days after treatment: 0
Dandelion seeds [2]; Example 1, 21 days after application, 100 g/m^2 combined or FSM, 4.8 g/m^2 FeHEDTA, untreated 42
  Seedling emergence: No of seedlings (21 days after application): 44
Dandelion seeds [2]; Example 1, 21 days after application
  Weed emergence suppression assay score: −4.76%
Dandelion seeds [2]; Example 2, 21 days after application, 100 g/m^2 combined or FSM, 4.8 g/m^2 FeHEDTA, untreated 60
  Seedling emergence: No of seedlings (21 days after application): 76
Dandelion seeds [2]; Example 2, 21 days after application
  Weed emergence suppression assay score: −26.66%
Dandelion seeds [2]; Example 3, 7 days after application, 100 g/m^2 combined or FSM, 4.8 g/m^2 FeHEDTA, untreated 134
  Seedling emergence: No of seedlings 7 days after application: 59
Dandelion seeds [2]; Example 3, 7 days after application
  Weed emergence suppression assay score: 55.07%
Dandelion seeds [3]; 14 days after application, untreated = 0%
  Weed emergence suppression assay score: 2.63%
Dandelion seeds [3]; untreated 76
  Weed (dandelion) Seedling emergence: No of dandelion seedlings (14 days after application): 74
